Laboratory results reported in paper PMC5515969, “Effects of 31 FDA approved small-molecule kinase inhibitors on isolated rat liver mitochondria” (Archives of Toxicology, 2016).
Read-outs that look alike come from different tables or passages of the source. Marks after values point to notes of the source that are not given here.

Tests used:
[1] = tested on: isolated rat liver mitochondria; test: Mitochondrial oxygen consumption (glutamate/malate or succinate driven, state 4 and state 3); assay type: biochemical; conditions: for Glutamate/malate driven respiration State 3 / Glutamate/malate driven respiration State 4 / Succinate-driven respiration State 3 / Succinate-driven respiration State 4: oxygen consumption, DMSO-treated = 1; for State 3 respiration driven by succinate at 10XCmax: key: 0 indicates that the drug had no effects (negative); for State 3 respiration driven by succinate at 1XCmax: key: 0 indicates that the drug had no effects (negative)
In short: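 Rat liver mitochondria (1 mg/ml protein) exposed 5 min to kinase inhibitors in 0.1% DMSO, then O2 consumption measured by Clark-type electrode with glutamate/malate or succinate (state 4), ADP added after 3 min (state 3). Rates normalized to 0.1% DMSO controls set to 1.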

RCC I = RCC I activity in submitochondrial particles; assay type: biochemical, rat; parameters: key to RCC I at 10XCmax / RCC I at 100XCmax / RCC I at 50XCmax / RCC I at 30XCmax / RCC I at 20XCmax: activity relative to DMSO-treated controls (control set as 1 = 100%)
In short: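 Abs 340 nm (I/V) or 600 nm (II), 1-min reads × 6 min; 550 nm (III, IV), 10-s reads × 2 min. RCC I = rotenone-free minus rotenone rate. DMSO control = 1.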

RCC II = biological target: T1, RCC II (Rattus norvegicus, UniProt P21913+Q641Z9+Q6PCT8+Q920L2); test: RCC II activity in submitochondrial particles; assay type: biochemical; parameters: key: activity relative to DMSO-treated controls (control set as 1 = 100%); conditions: relative to DMSO treated samples
T1 construct: Submitochondrial particles were prepared by subjecting the intact mitochondria to three successive freeze–thaw cycles; from tissue; host or cells: rat liver mitochondria, used as submitochondrial particles
In short: (§1)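 Kinase inhibitors were preincubated 15 min with submitochondrial particles (1 mg/ml) before complex activities were measured. RCC I was the rotenone-sensitive portion (activity without minus with rotenone). RCC I/V was read at 340 nm and RCC II at 600 nm every 1 min for 6 min. RCC III and IV were read at 550 nm every 10 s for 2 min. Activities are normalized to DMSO controls set as 1.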

RCC III = RCC III activity in submitochondrial particles; assay type: biochemical, rat; conditions: 10-fold Cmax; 15 min; DMSO-treated = 100
In short: as §1

RCC IV = RCC IV activity in submitochondrial particles; assay type: biochemical, rat; conditions: 10-fold Cmax; 15 min; DMSO-treated = 100
In short: as §1

RCC V = RCC V activity in submitochondrial particles; assay type: biochemical, rat; for RCC V at 5XCmax: key: 0 indicates that the drug had no effects (negative)
In short: as §1

[2] = tested on: isolated rat liver mitochondria; test: Mitochondrial inner membrane potential (MMP), Rhodamine 123; assay type: biochemical
Excerpt: Fig. 3 KI effects on mitochondrial inner membrane potential (MMP). […] In a, c, data are means and standard derivations from three separate experiments. *p < 0.05 as compared to DMSO-treated samples at the end of experiments. In b, data are means of two independent experiments

[3] = tested on: isolated rat liver mitochondria; test: Mitochondrial swelling (absorbance at 535 nm); assay type: biochemical
[4] = cited from earlier work
[5] = cited from earlier work; remark: listed apart in the source
[6] = 1XCmax, DMSO treated samples set as 1
[7] = 2.5XCmax, DMSO treated samples set as 1
[8] = 5XCmax, DMSO treated samples set as 1
[9] = 10XCmax, DMSO treated samples set as 1
[10] = 10-fold Cmax, 15 min, DMSO-treated = 100
[11] = 1XCmax, difference in signal between KI and DMSO treated samples at the end of experiments

T1 sequence (Q920L2 35-656): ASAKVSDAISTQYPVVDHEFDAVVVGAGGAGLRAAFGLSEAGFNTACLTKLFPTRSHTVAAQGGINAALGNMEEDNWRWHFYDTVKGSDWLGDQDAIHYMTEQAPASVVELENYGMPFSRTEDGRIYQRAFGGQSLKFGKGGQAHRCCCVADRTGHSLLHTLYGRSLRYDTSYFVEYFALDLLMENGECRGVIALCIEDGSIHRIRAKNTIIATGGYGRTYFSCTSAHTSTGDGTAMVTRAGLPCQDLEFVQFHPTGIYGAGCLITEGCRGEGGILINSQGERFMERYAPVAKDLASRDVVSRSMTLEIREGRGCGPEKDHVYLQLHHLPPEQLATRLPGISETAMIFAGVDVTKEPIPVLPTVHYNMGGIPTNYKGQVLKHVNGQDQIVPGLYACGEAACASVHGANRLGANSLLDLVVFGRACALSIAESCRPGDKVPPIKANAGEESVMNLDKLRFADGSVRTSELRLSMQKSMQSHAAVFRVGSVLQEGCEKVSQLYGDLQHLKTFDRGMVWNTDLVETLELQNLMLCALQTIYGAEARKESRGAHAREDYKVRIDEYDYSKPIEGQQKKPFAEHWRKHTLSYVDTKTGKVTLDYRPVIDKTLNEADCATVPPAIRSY
T1 sequence (P21913 31-282): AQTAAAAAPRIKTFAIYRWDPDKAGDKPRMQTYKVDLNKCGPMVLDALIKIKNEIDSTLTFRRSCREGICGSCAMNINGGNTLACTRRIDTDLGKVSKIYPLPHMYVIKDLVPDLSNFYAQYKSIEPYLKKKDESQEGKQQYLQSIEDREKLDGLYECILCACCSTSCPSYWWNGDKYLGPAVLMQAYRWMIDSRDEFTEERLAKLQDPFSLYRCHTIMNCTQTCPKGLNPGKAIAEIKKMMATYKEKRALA
T1 sequence (Q641Z9 1-169): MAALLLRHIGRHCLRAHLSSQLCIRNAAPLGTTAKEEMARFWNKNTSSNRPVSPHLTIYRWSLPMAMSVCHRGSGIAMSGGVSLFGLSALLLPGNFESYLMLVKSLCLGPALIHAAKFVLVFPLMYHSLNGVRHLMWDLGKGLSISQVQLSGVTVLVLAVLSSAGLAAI
T1 sequence (Q6PCT8 57-159): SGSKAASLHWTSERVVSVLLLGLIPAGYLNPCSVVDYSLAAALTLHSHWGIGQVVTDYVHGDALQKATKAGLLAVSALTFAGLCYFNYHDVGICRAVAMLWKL

CNC(=O)c1cc(Oc2ccc(NC(=O)Nc3ccc(Cl)c(C(F)(F)F)c3)c(F)c2)ccn1 [Regorafenib]
Glutamate/malate driven respiration State 3 ([1]; 1-fold Cmax): 2.33 ± 0.06 | Glutamate/malate driven respiration State 4 ([1]; 1-fold Cmax): 7.45 ± 0.17 | Succinate-driven respiration State 3 ([1]; 1-fold Cmax): 1.05 ± 0.07 | Succinate-driven respiration State 4 ([1]; 1-fold Cmax): 2.95 ± 0.08 | State 3 respiration driven by glutamate/malate at 1XCmax [1, 6]: 2.33±0.06 | State 3 respiration driven by succinate at 1XCmax [1, 6]: 0 | State 4 respiration driven by glutamate/malate at 1XCmax [1, 6]: 7.45±0.17 | State 4 respiration driven by succinate at 1XCmax [1, 6]: 2.95±0.08 | Glutamate/malate driven respiration State 3 ([1]; 2.5-fold Cmax): 2.51 ± 0.04 | Glutamate/malate driven respiration State 4 ([1]; 2.5-fold Cmax): 5.51 ± 0.35 | Succinate-driven respiration State 3 ([1]; 2.5-fold Cmax): 0.84 ± 0.04 | Succinate-driven respiration State 4 ([1]; 2.5-fold Cmax): 3.59 ± 0.14 | State 3 respiration driven by glutamate/malate at 2.5XCmax [1, 7]: 2.51±0.04 | State 3 respiration driven by succinate at 2.5XCmax [1, 7]: 0 | State 4 respiration driven by glutamate/malate at 2.5XCmax [1, 7]: 5.51±0.35 | State 4 respiration driven by succinate at 2.5XCmax [1, 7]: 3.59±0.14 | Glutamate/malate driven respiration State 3 ([1]; 5-fold Cmax): 1.33 ± 0.04 | Glutamate/malate driven respiration State 4 ([1]; 5-fold Cmax): 3.82 ± 0.72 | Succinate-driven respiration State 3 ([1]; 5-fold Cmax): 0.83 ± 0.03 | Succinate-driven respiration State 4 ([1]; 5-fold Cmax): 1.69 ± 0.09 | State 3 respiration driven by glutamate/malate at 5XCmax [1, 8]: 1.33±0.04 | State 3 respiration driven by succinate at 5XCmax [1, 8]: 0 | State 4 respiration driven by glutamate/malate at 5XCmax [1, 8]: 3.82±0.72 | State 4 respiration driven by succinate at 5XCmax [1, 8]: 1.69±0.09 | Glutamate/malate driven respiration State 3 ([1]; 10-fold Cmax): 1.36 ± 0.03 | Glutamate/malate driven respiration State 4 ([1]; 10-fold Cmax): 3.84 ± 0.34 | Succinate-driven respiration State 3 ([1]; 10-fold Cmax): 0.82 ± 0.19 | Succinate-driven respiration State 4 ([1]; 10-fold Cmax): 1.78 ± 0.19 | State 3 respiration driven by glutamate/malate at 10XCmax [1, 9]: 1.36±0.03 | State 3 respiration driven by succinate at 10XCmax [1, 9]: 0 | State 4 respiration driven by glutamate/malate at 10XCmax [1, 9]: 3.84±0.34 | State 4 respiration driven by succinate at 10XCmax [1, 9]: 1.78±0.19 | effect on state 4 respiration ([1]; highest tested concentrations): significant increases | lowest concentration significantly affecting mitochondrial oxygen consumption ([1]; tested at 1 to 100-fold Cmax): equal to Cmax | RCC activity I (RCC I; [10]): 99.37 ± 3.35 % of control | RCC I at 10XCmax (RCC I; 10XCmax, relative to DMSO treated samples): 0 | RCC II at 1.0XCmax (RCC II; 1.0XCmax): 0 | RCC II at 2.5XCmax (RCC II; 2.5XCmax): 0 | RCC II at 5XCmax (RCC II; 5XCmax): 0 | RCC II at 10XCmax (RCC II; 10XCmax): 83.50±2.91 | RCC activity III (RCC III): 90.31 ± 13.61 % of control | RCC activity IV (RCC IV): 95.37 ± 6.45 % of control | RCC V at 5XCmax (RCC V; 5XCmax, relative to DMSO treated samples): 0 | RCC activity V (RCC V; [10]): 90.36 ± 13.39 % of control | lowest concentration decreasing MMP [2]: onefold | MMP measured by Rhodamine 123 at 1XCmax [2, 11]: 4244±687* | MMP measured by Rhodamine 123 at 2.5XCmax ([2]; 2.5XCmax, difference in signal between KI and DMSO treated samples at the end of experiments): 4112±722* | MMP measured by Rhodamine 123 at 5XCmax ([2]; 5XCmax, difference in signal between KI and DMSO treated samples at the end of experiments): 3961±724* | MMP measured by Rhodamine 123 at 10XCmax ([2]; 10XCmax, difference in signal between KI and DMSO treated samples at the end of experiments): 3711±588* | effect on MMP ([2]; up to 100-fold Cmax or highest testable concentration): decrease in MMP | lowest concentration causing mitochondrial swelling [3]: onefold | Swelling 1XCmax [3, 11]: 0.46±0.03 | mitochondrial swelling ([3]; onefold Cmax): almost maximal swelling | effect on mitochondrial swelling ([3]; up to 100-fold Cmax or highest testable concentration, 25 µM calcium chloride): significant mitochondrial swelling | Cmax ([4]; human therapeutic Cmax at FDA recommended dosages, ref product labeling and drug approval packages at the official FDA website): 8.08 µM | Cmax ([4]; therapeutic maximal blood concentration, ref product labeling): 3900 ng/mL | DILI potential (based on labeling) ([5]; 1 = DILI positive, 0 = negative, ref product labeling): 1 | Labeling for DILI ([5]; BBW: black box warning, W&P: Warnings and Precautions, ref product labeling): BBW: fatal DILI | labeling for DILI ([5]; W&P warnings and precautions, BBW black box warnings, ref FDA product labeling): BBW: fatal DILI | DILI potential (based on labeling) ([5]; ref FDA product labeling): 1
